From ChEMBL document CHEMBL4627316, “Design and synthesis of potent PAR-1 antagonists based on vorapaxar” (Bioorg Med Chem Lett, 2020)

Legend:
[1] = biological target: T1, Proteinase-activated receptor 1 (Homo sapiens) (UniProt P25116); experiment: Antagonist activity at human PAR1 expressed in KNRK cells assessed as inhibition of agonist-induced intracellular calcium mobilization at 10^-7 M by fluorimetric assay relative to control; format: functional, cell-based
T1 sequence (whole entry): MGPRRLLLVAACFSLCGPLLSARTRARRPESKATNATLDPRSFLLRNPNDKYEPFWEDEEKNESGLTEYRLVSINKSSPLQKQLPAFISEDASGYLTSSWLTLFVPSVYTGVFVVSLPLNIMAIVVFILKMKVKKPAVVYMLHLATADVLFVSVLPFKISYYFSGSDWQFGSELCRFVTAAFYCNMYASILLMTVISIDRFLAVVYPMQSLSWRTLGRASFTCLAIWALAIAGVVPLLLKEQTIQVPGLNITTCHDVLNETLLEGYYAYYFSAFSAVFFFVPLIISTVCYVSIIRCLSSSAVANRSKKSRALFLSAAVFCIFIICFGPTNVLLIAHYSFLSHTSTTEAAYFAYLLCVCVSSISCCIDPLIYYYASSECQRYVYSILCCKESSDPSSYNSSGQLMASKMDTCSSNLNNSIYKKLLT

[2] = biological target: T1, Proteinase-activated receptor 1 (Homo sapiens); experiment: Antagonist activity at human PAR1 expressed in KNRK cells assessed as inhibition of agonist-induced intracellular calcium mobilization at 10^-6 M by fluorimetric assay relative to control; format: functional, cell-based
[3] = biological target: T1, Proteinase-activated receptor 1 (Homo sapiens); experiment: Antagonist activity at human PAR1 expressed in KNRK cells assessed as inhibition of agonist-induced intracellular calcium mobilization at 10^-5 M by fluorimetric assay relative to control; format: functional, cell-based
[4] = biological target: T2, Proteinase-activated receptor 1 (Homo sapiens, UniProt P25116); experiment: Antagonist activity at human PAR1 expressed in KNRK cells assessed as inhibition of agonist-induced intracellular calcium mobilization by fluorimetric assay; format: functional, cell-based
T2 sequence (P25116 whole entry): T1 sequence (whole entry)

[5] = Half life in Sprague-Dawley rat at 5 mg/kg, po or 1 mg/kg, iv; format: ADME, organism-based; conditions: in vivo
[6] = AUC (0 to infinity) in Sprague-Dawley rat at 5 mg/kg, po or 1 mg/kg, iv; format: ADME, organism-based; conditions: in vivo
[7] = Cmax in Sprague-Dawley rat at 5 mg/kg, po or 1 mg/kg, iv; format: ADME, organism-based; conditions: in vivo
[8] = Oral bioavailability in Sprague-Dawley rat at 5 mg/kg; format: ADME, organism-based; conditions: in vivo
[9] = Ratio of drug concentration in brain to plasma in Sprague-Dawley rat at 5 mg/kg, po measured at 8 hrs; format: ADME, organism-based; conditions: read-out: BPR

Row | Structure (SMILES) | inhibition [1] [%] | inhibition [2] [%] | inhibition [3] [%] | IC50 [4] [nM] | half-life [5] [h] | AUC(0-inf) [6] [ng·h/mL] | Cmax [7] [ng/mL] | bioavailability [8] [%] | Kp at 8 h [9]
1 | Cc1ccnc(N[C@@H]2CC[C@@H]3[C@@H](C2)C[C@H]2C(=O)O[C@H](C)[C@H]2[C@H]3/C=C/c2ccc(-c3cccc(F)c3)cn2)n1 | 20 | 98 | 101 | 610 | 6.7 | 860 | 110 | 23 | 1.13
2 | CCOC(=O)N[C@@H]1CC[C@@H]2[C@@H](C1)C[C@H]1C(=O)O[C@H](C)[C@H]1[C@H]2/C=C/c1ccc(-c2ccccn2)cc1 | 5 | 40 | 66 | 550 | 5 | 7100 | 710 | 44 | 0.54
3 | CCOC(=O)N[C@@H]1CC[C@@H]2[C@@H](C1)C[C@H]1C(=O)O[C@H](C)[C@H]1[C@H]2/C=C/c1ccc(-c2cccc(F)c2)cc1 | -7 | 26 | 42 |  |  |  |  |  | 
4 | C[C@H]1OC(=O)[C@@H]2C[C@@H]3C[C@H](Nc4nc5ccccc5o4)CC[C@H]3[C@H](/C=C/c3ccc(-c4cccc(F)c4)cn3)[C@H]12 | 3 | 28 | 81 |  |  |  |  |  | 
5 | C[C@H]1OC(=O)[C@@H]2C[C@@H]3C[C@H](NCC(=O)O)CC[C@H]3[C@H](/C=C/c3ccc(-c4cccc(F)c4)cn3)[C@H]12 | 13 | 34 | 48 |  |  |  |  |  | 
6 | CCOC(=O)CN[C@@]12C[C@@H]3CCCC[C@H]3[C@H](/C=C/c3ccc(-c4cccc(F)c4)cn3)[C@@H]1[C@@H](C)OC2=O | -5 | 81 | 101 |  |  |  |  |  | 
7 | CCOC(=O)N[C@@H]1CC[C@@H]2[C@@H](C1)C[C@H]1C(=O)O[C@H](C)[C@H]1[C@H]2/C=C/c1ccc(-c2cccc(F)c2)cn1 [VORAPAXAR] | 25 | 99 | 101 | 250 | 4 | 3500 | 440 | 94 | 1.08
8 | C[C@H]1OC(=O)[C@]2(NCC#N)C[C@@H]3CCCC[C@H]3[C@H](/C=C/c3ccc(-c4cccc(F)c4)cn3)[C@H]12 | -4 | 92 | 99 | 760 | 8.5 | 5140 | 2310 | 34 | 0.35
9 | C[C@H]1OC(=O)[C@@H]2C[C@@H]3C[C@H](NCC#N)CC[C@H]3[C@H](/C=C/c3ccc(-c4cccc(F)c4)cn3)[C@H]12 | 44 | 71 | 99 | 180 | 6.4 | 6390 | 580 | 98 | 0.38
10 | C[C@H]1OC(=O)[C@]2(NCC(=O)O)C[C@@H]3CCCC[C@H]3[C@H](/C=C/c3ccc(-c4cccc(F)c4)cn3)[C@H]12 | 23 | 61 | 100 | 1100 | 2.9 | 5000 | 1140 | 70 | 0.68
